{"source": "patent US20030138485A1", "about": "“Disintegrant” (DAIICHI PHARMACEUTICAL CO., LTD., priority 1998, published 2003)", "key": {"[1]": {"test": "Measurement of viscosity of a saturated aqueous solution", "type": "physicochemical", "settings": "B-type viscometer", "description": "(2) Measurement of Viscosity of a Saturated Aqueous Solution\nA saturated aqueous solution of a sample was prepared at 37° C., and the resultant solution was filtered by use of a membrane filter. The viscosity of the solution was measured by use of the resultant filtrate at 37° C. by means of a B-type viscometer."}, "[2]": {"test": "physchem", "settings": "water"}, "[3]": {"test": "Increase in weight by moisture absorption", "type": "physicochemical", "settings": "for moisture absorption (in words): 25° C., relative humidity 75%, seven days, Table 2; for increase in weight by moisture absorption: sample stored 25° C., 75% open air, 7 days", "description": "(7) Increase in Weight by Moisture Absorption\nA sample tablet was weighed before and after moisture absorption, and the increase in weight of the tablet by moisture absorption (%) was calculated.\nIn test Example 2, erythritol and trehalose (in the form of hydrous crystals, products of Hayashibara Shoji Inc.) and xylitol and maltose (in the form of anhydrous crystals, products of Nihon Shokuhin Kako Co., Ltd.) were stored for seven days at a temperature of 25° C. and a relative humidity of 75%. Thereafter, each of these was subjected to measurement of increase in weight by moisture absorption (%). In Reference Example 2, the increases in weight by moisture absorption (%) of cornstarch, low substituted hydroxypropylcellulose, carmellose, carmellose calcium, and carmellose sodium were measured in the same manner as in Test Example 2. These compounds had been dried in a drier at 80° C. for one hour, and then employed as samples."}, "[4]": {"settings": "general description; cited from earlier work"}}}
{"smiles": "OC[C@@H](O)[C@@H](O)[C@H](O)[C@H](O)CO", "note": "[D-Mannitol, reference compound]", "values": [{"measurement": "Viscosity (37° C.)", "setting": "[1]", "value": 1.6, "unit": "mPa · s"}, {"measurement": "solubility thermodynamic", "setting": "[2]", "value": 240, "unit": "mg/mL"}]}
{"smiles": "OC[C@@H](O)[C@@H](O)[C@H](O)[C@@H](O)CO", "note": "[D-Sorbitol, reference compound]", "values": [{"measurement": "Viscosity (37° C.)", "setting": "[1]", "value": "2090 or more mPa · s"}]}
{"smiles": "OC[C@@H](O)[C@@H](O)CO", "note": "[Erythritol]", "values": [{"measurement": "Viscosity (37° C.)", "setting": "[1]", "value": 3.5, "unit": "mPa · s"}, {"measurement": "moisture absorption (in words)", "setting": "[3]", "value": "absorb little moisture"}, {"measurement": "increase in weight by moisture absorption", "setting": "[3]", "value": 0.03, "unit": "%"}, {"measurement": "heat of dissolution", "setting": "[4]", "value": -42.9, "unit": "cal/g"}, {"measurement": "hygroscopicity (in words)", "setting": "[4]", "value": "not hygroscopic"}, {"measurement": "solubility in water (in words)", "setting": "[4]", "value": "easily dissolved in water"}, {"measurement": "solubility thermodynamic", "setting": "[2]", "value": 450, "unit": "mg/mL"}]}
{"smiles": "OC[C@@H](O)[C@@H](O[C@@H]1O[C@H](CO)[C@H](O)[C@H](O)[C@H]1O)[C@H](O)[C@@H](O)CO", "note": "[Hydrogenated lactose, reference compound]", "values": [{"measurement": "Viscosity (37° C.)", "setting": "[1]", "value": 218, "unit": "mPa · s"}]}
{"smiles": "OC[C@H]1O[C@@H](O[C@H]2[C@H](O)[C@@H](O)C(O)O[C@@H]2CO)[C@H](O)[C@@H](O)[C@H]1O", "note": "(some centres unmarked) [Lactose, reference compound]", "values": [{"measurement": "Viscosity (37° C.)", "setting": "[1]", "value": 1.7, "unit": "mPa · s"}]}
{"smiles": "OC[C@H]1O[C@H](O[C@H]2[C@H](O)[C@@H](O)[C@H](O)O[C@@H]2CO)[C@H](O)[C@@H](O)[C@@H]1O", "note": "[Maltose]", "values": [{"measurement": "Viscosity (37° C.)", "setting": "[1]", "value": 38, "unit": "mPa · s"}, {"measurement": "moisture absorption (in words)", "setting": "[3]", "value": "absorb little moisture"}, {"measurement": "increase in weight by moisture absorption", "setting": "[3]", "value": 0.06, "unit": "%"}]}
{"smiles": "CC(=O)[O-].[K+]", "note": "[Potassium acetate]", "values": [{"measurement": "Viscosity (37° C.)", "setting": "[1]", "value": 30, "unit": "mPa · s"}]}
{"smiles": "CC(=O)[O-].[Na+]", "note": "[Sodium acetate]", "values": [{"measurement": "Viscosity (37° C.)", "setting": "[1]", "value": 5.2, "unit": "mPa · s"}]}
{"smiles": "OC[C@H]1O[C@@](CO)(O[C@H]2O[C@H](CO)[C@@H](O)[C@H](O)[C@H]2O)[C@@H](O)[C@@H]1O", "note": "[Sucrose, reference compound]", "values": [{"measurement": "Viscosity (37° C.)", "setting": "[1]", "value": 1120, "unit": "mPa · s"}, {"measurement": "solubility thermodynamic", "setting": "[2]", "value": 780, "unit": "mg/mL"}]}
{"smiles": "OC[C@H]1O[C@H](O[C@H]2O[C@H](CO)[C@@H](O)[C@H](O)[C@H]2O)[C@H](O)[C@@H](O)[C@@H]1O", "note": "[Trehalose]", "values": [{"measurement": "Viscosity (37° C.)", "setting": "[1]", "value": 11, "unit": "mPa · s"}, {"measurement": "moisture absorption (in words)", "setting": "[3]", "value": "absorb little moisture"}, {"measurement": "increase in weight by moisture absorption", "setting": "[3]", "value": 0.99, "unit": "%"}, {"measurement": "hygroscopicity (in words)", "setting": "[4]", "value": "not hygroscopic"}, {"measurement": "solubility in water (in words)", "setting": "[4]", "value": "easily dissolved in water"}, {"measurement": "solubility thermodynamic", "setting": "[2]", "value": 500, "unit": "mg/mL"}]}
{"smiles": "OC[C@@H](O)[C@H](O)[C@@H](O)CO", "note": "[Xylitol]", "values": [{"measurement": "Viscosity (37° C.)", "setting": "[1]", "value": 37, "unit": "mPa · s"}, {"measurement": "moisture absorption (in words)", "setting": "[3]", "value": "absorb little moisture"}, {"measurement": "increase in weight by moisture absorption", "setting": "[3]", "value": 0.05, "unit": "%"}, {"measurement": "heat of dissolution", "setting": "[4]", "value": -35, "unit": "cal/g"}, {"measurement": "hygroscopicity (in words)", "setting": "[4]", "value": "slightly hygroscopic"}, {"measurement": "solubility in water (in words)", "setting": "[4]", "value": "very easily dissolved in water"}, {"measurement": "solubility thermodynamic", "setting": "[2]", "value": 740, "unit": "mg/mL"}]}
